Test results from ChEMBL document CHEMBL1781926, “Synthesis of 1-naphtylpiperazine derivatives as serotoninergic ligands and their evaluation as antiproliferative agents” (Eur J Med Chem, 2011).
The source made the active and inactive calls. The calls are words filed in the database; no cut-off is given here.

Assays:
[1] = molecular target: T1, 5-hydroxytryptamine receptor 2C (Rattus norvegicus, UniProt P08909); assay: Displacement of [3H]mesulergine from 5HT2C receptor in Sprague-Dawley rat frontal cortical homogenates after 15 mins
T1 sequence (P08909 whole entry): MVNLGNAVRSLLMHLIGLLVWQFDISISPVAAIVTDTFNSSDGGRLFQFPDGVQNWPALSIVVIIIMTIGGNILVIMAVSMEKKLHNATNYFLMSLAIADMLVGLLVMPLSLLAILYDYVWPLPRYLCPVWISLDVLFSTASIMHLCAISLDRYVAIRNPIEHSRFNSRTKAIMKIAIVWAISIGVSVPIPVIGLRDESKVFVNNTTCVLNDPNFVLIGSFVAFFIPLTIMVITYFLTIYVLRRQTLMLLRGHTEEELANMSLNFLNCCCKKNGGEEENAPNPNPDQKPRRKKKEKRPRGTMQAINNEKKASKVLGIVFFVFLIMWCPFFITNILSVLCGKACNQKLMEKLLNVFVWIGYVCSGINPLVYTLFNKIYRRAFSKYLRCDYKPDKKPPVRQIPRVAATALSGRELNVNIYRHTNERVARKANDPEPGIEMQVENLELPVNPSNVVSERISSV

[2] = molecular target: T2, Adrenergic receptor alpha-1 (Rattus norvegicus, UniProt P15823+P23944+P43140); assay: Displacement [3H]prazosin from alpha1 adrenergic receptor in rat brain cortex homogenates after 30 mins by liquid scintillation counting; assay type: tissue-based
T2 sequence (P15823 whole entry): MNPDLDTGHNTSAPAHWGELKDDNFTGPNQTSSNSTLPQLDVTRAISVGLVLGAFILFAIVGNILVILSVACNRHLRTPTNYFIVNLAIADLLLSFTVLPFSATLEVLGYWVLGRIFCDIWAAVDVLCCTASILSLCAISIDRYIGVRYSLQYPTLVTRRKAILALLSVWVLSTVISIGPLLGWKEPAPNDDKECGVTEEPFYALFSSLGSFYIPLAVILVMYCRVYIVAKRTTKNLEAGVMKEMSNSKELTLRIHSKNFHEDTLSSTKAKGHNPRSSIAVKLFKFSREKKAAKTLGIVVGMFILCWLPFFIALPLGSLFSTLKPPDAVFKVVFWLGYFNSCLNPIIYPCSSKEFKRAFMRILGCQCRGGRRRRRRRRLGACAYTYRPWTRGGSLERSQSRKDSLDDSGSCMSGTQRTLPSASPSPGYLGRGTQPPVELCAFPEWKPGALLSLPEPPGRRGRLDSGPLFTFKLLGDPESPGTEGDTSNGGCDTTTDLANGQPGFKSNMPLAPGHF
T2 sequence (P23944 whole entry): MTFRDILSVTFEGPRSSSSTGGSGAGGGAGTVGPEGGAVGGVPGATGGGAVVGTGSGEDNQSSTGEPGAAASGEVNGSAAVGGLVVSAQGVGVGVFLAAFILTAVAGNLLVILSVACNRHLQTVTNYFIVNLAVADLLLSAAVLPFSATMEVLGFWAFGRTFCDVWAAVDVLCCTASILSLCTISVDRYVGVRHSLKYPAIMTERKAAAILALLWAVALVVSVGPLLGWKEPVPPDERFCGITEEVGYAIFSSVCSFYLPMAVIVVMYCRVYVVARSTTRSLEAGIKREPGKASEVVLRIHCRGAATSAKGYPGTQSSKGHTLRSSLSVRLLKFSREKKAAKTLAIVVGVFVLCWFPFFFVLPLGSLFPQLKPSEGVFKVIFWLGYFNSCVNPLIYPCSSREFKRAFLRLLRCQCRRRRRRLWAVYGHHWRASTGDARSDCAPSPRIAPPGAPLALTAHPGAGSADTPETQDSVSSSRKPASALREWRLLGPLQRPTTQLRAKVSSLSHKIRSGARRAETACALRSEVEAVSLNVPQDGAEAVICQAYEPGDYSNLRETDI
T2 sequence (P43140 whole entry): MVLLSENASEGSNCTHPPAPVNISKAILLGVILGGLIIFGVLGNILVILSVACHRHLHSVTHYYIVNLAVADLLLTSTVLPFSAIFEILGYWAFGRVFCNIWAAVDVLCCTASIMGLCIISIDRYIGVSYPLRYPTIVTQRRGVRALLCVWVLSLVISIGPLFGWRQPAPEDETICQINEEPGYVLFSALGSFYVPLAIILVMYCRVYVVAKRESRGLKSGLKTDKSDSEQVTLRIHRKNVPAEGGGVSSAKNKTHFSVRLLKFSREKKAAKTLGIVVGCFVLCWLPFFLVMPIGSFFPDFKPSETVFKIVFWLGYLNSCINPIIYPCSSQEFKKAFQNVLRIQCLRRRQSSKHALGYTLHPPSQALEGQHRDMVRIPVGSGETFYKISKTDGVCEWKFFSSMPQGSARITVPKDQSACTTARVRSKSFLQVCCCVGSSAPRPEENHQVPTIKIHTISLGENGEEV

D(2) dopamine receptor = D(2) dopamine receptor (Rattus norvegicus, UniProt P61169); assay: Displacement of [3H]spiperone from dopamine D2 receptor in rat corpora striatum homogenates after 15 mins by liquid scintillation counting
Chain of D(2) dopamine receptor (P61169 whole entry): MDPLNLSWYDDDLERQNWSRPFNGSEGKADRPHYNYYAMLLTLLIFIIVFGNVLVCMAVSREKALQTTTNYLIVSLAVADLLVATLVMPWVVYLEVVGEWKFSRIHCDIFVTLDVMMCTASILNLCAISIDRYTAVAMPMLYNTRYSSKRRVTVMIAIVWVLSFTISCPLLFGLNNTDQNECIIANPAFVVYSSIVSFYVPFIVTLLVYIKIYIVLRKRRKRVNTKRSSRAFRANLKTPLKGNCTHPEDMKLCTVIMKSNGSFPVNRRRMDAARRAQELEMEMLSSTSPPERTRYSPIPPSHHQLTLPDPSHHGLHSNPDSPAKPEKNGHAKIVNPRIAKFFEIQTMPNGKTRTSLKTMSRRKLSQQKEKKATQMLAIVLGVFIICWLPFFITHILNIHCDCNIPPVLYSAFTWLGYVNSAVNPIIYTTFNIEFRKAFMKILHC

PC-3 [3] = assay: Cell cycle arrest in human PC3 cells assessed as accumulation at G2 phase at 15 uM after 24 hrs using propidium iodide staining by flow cytometry (reference value: 18.19 %); assay type: functional
PC-3 [4] = assay: Induction of apoptosis in human PC3 cells at 15 uM after 48 hrs using propidium iodide staining by flow cytometry (reference value: 0.84 %); assay type: functional
PC-3 [5] = assay: Cell cycle arrest in human PC3 cells assessed as accumulation at S phase at 15 uM after 72 hrs using propidium iodide staining by flow cytometry (reference value: 37.73 %); assay type: functional
PC-3 [6] = assay: Cell cycle arrest in human PC3 cells assessed as accumulation at G1 phase at 15 uM after 72 hrs using propidium iodide staining by flow cytometry (reference value: 42.19 %); assay type: functional
PC-3 [7] = assay: Cell cycle arrest in human PC3 cells assessed as accumulation at G2 phase at 15 uM after 72 hrs using propidium iodide staining by flow cytometry (reference value: 20.18 %); assay type: functional
PC-3 [8] = assay: Cell cycle arrest in human PC3 cells assessed as accumulation at S phase at 15 uM after 48 hrs using propidium iodide staining by flow cytometry (reference value: 38.16 %); assay type: functional
PC-3 [9] = assay: Cell cycle arrest in human PC3 cells assessed as accumulation at G1 phase at 15 uM after 48 hrs using propidium iodide staining by flow cytometry (reference value: 54.14 %); assay type: functional
PC-3 [10] = assay: Induction of apoptosis in human PC3 cells at 15 uM after 24 hrs using propidium iodide staining by flow cytometry (reference value: 1.27 %); assay type: functional
PC-3 [11] = assay: Cell cycle arrest in human PC3 cells assessed as accumulation at S phase at 15 uM after 24 hrs using propidium iodide staining by flow cytometry (reference value: 34.84 %); assay type: functional
PC-3 [12] = assay: Cell cycle arrest in human PC3 cells assessed as accumulation at G2 phase at 15 uM after 48 hrs using propidium iodide staining by flow cytometry (reference value: 13.36 %); assay type: functional
PC-3 [13] = assay: Cell cycle arrest in human PC3 cells assessed as accumulation at G1 phase at 15 uM after 24 hrs using propidium iodide staining by flow cytometry (reference value: 46.97 %); assay type: functional
PC-3 [14] = assay: Induction of apoptosis human PC3 cells assessed as externalization of phosphatidylserine on the outer layer of plasma membrane at 15 uM after 24 to 48 hrs using Annexin-V-FITC staining by flow cytometry; assay type: functional, cell-based

Compound | Ki [1] | Ki [2] [µM] | Ki (D(2) dopamine receptor) [µM] | Activity (PC-3 [3]) [%] | Ki ([1]; read-out: Ki) [µM] | Activity (PC-3 [4]) [%] | Activity (PC-3 [5]) [%] | Activity (PC-3 [6]) [%] | Activity (PC-3 [7]) [%] | Activity (PC-3 [8]) [%] | Activity (PC-3 [9]) [%] | Activity (PC-3 [10]) [%] | Activity (PC-3 [11]) [%] | Activity (PC-3 [12]) [%] | Activity (PC-3 [13]) [%] | Activity (PC-3 [14])
O=C1C2C3C=CC(C3)C2C(=O)N1OCCN1CCN(c2cccc3ccccc23)CC1 (stereo not given) | Not Active | > 10 | > 10 |  |  |  |  |  |  |  |  |  |  |  |  | 
O=C1C2C3C=CC(C3)C2C(=O)N1OCCCN1CCN(c2cccc3ccccc23)CC1 (stereo not given) | Not Active | > 10 | 0.263 |  |  |  |  |  |  |  |  |  |  |  |  | 
O=c1c2ccccc2nnn1CCN1CCN(c2cccc3ccccc23)CC1 |  | 0.112 | > 10 | 24.17 | > 10 | 2.79 | 29.95 | 45.86 | 24.19 | 34.56 | 41.36 | 2.17 | 37.45 | 24.08 | 38.38 | Active
O=c1c2ccccc2nnn1CCCN1CCN(c2cccc3ccccc23)CC1 |  | 0.562 | > 10 | 27.3 | > 10 | 2.12 | 28.24 | 43.11 | 28.65 | 33.58 | 44.13 | 1.71 | 35.15 | 22.29 | 37.55 | Active
O=c1c2ccccc2nnn1OCCCN1CCN(c2cccc3ccccc23)CC1 | Not Active | 0.8 | 0.0854 |  |  |  |  |  |  |  |  |  |  |  |  | 
N#C/N=C(\NCCCN1CCN(c2cccc3ccccc23)CC1)c1ccccn1 | Not Active | > 10 | > 10 |  |  |  |  |  |  |  |  |  |  |  |  | 
O=c1c2ccccc2nnn1OCCN1CCN(c2cccc3ccccc23)CC1 | Not Active | > 10 | > 10 |  |  |  |  |  |  |  |  |  |  |  |  | 
